The text below walks through data of US4610879A (priority 1984, dated 1986).

The target of experiment [1] is fibrinolytic enzyme from Southern Copperhead venom (Agkistrodon contortrix contortrix, UniProt P28891). Put plainly: biochemical. The class given is biochemical, Southern Copperhead snake (A.c. contortrix).
Experiment [2] concerns purified human plasminogen. Put plainly: Plasminogen activation measured by S-2251 hydrolysis. The class given is biochemical. As to conditions: aliquots of the venom enzyme-plasminogen mixture treated with streptokinase.
Experiment [3] concerns autologous or human clots. The experiment can be described thus: Streptokinase regimens in animal clot models. Conditions: increasing the rate of streptokinase infusion. The class given is in vivo, dogs, pigs, and rabbits.
In experiment [4] the test system is human plasma clot. Put plainly: Plasma clot lysis, human plasma. The class given is biochemical. As to conditions: plasmin 1.08 caseinolytic units per milliliter, after twenty-four hours.
Experiment [5] concerns rabbit plasma clot. Put plainly: Plasma clot lysis, rabbit plasma. The class given is biochemical. As to conditions: plasmin 1.08 caseinolytic units per milliliter, after twenty-four hours.
For experiment [6], the system named is fibrin clots. Put plainly: Preliminary in vitro evaluation against fibrin clots in plasma. The class given is biochemical. As to conditions: 0.1 mgm purified venom enzyme, or plasmin.
Experiment [7] concerns azocasein. As to conditions: pure plasmin, for comparison; cited from earlier work.

Sequence of fibrinolytic enzyme from Southern Copperhead venom (P28891 whole entry, looked up): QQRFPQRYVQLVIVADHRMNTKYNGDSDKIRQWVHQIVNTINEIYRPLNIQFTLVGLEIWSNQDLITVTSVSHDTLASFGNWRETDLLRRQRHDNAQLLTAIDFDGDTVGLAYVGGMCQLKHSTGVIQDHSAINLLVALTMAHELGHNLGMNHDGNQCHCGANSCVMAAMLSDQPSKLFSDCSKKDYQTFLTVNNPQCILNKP

For `c1cnc2c(c1)ccc1cccnc12` [o-phenanthroline], the “Inhibition of the venom fibrinolytic enzyme (in words)” value (shortened to “Inhibition … (in words)”) in experiment [1] is given as “inhibited”.
As for `O=C(O)CN(CCN(CC(=O)O)CC(=O)O)CC(=O)O` [EDTA], the “Inhibition … (in words)” value in experiment [1] is “inhibited”. The inhibition at 50000 µM in experiment [1] (read-out: Inhibition of Azocaseinolytic Activity) stood at 92%.
In the case of streptokinase, the “S-2251 hydrolyzing activity (plasmin formed)” value in experiment [2] is reported as “hydrolyzing activity was generated”. For the same molecule, the “Acceleration of clot lysis” value in experiment [3] is “ineffective in significantly accelerating clot lysis”.
For the molecule plasmin, the Plasma clot lysis result in experiment [4] and in experiment [5] was “did not lyse” throughout. Besides, the “Fibrin clot lysis in plasma clotted with thrombin” value in experiment [6] is listed as “no fibrin clot lysis”. Further, the Plasmin activity in experiment [7] is 30-35 units per mg.
As to `O=C(O)c1cc[c]([Hg][Cl])cc1` [p-Chloromercuribenzoate], the “Inhibition … (in words)” value in experiment [1] is given as “not inhibited”.
As to α2 -Macroglobulin, in experiment [1], the “Inhibition of Azocaseinolytic Activity” value stood at 95% and the “Inhibition … (in words)” value was “inhibits”.
